pIC50: −log10 of the molar value.
Biological target: T1, LRRK2 G2019S mutant kinase (Homo sapiens, UniProt Q5S007, G2019S)
T1 construct: GST; purchased Invitrogen PV4882
Assay: LRRK2 G2019S LanthaScreen TR-FRET kinase assay
Type: biochemical
Conditions: LRRK2 G2019S GST-tagged protein, 100 μM ATP, LRRKtide substrate; read-out: IC50 (potency)
Experimental: Activity of compounds against LRRK2 G2019S mutant kinase function was tested in a LANTHAScreen® assay as follows: Compounds were diluted in 100% DMSO to the desired test concentrations in white, low-volume 384-well plates (PerkinElmer ProxiPlate® PN: 6008280). TR-FRET kinase reactions (10 μL) were performed with 75 nM Fluorescein-ERM (LRRKtide, Invitrogen, PN:PV4901) substrate in a final assay buffer containing 100 μM ATP and 2 mM DTT diluted in commercially available Kinase Buffer S (Invitrogen PN: PV5213). The final solvent concentration in the assay was 1% DMSO. Reactions were initiated with the addition of 10 ng/well of LRRK2 02019S, GST-tagged protein (Invitrogen PN: PV4882). After incubation of the foil sealed reaction plates at room temperature with low speed mixing for 1 hour, the kinase reaction was stopped and the amount of substrate phosphorylation was detected by addition of 10 μL of 10 mM EDTA and 2 nM Tb-anti-pERM (pLRRKtide antibody, Invitrogen, PN: PV4898) antibody in TR-FRET dilution buffer (Invitrogen PN: PV3574). After a 30 minute incubation at room temperature with low speed mixing, foil seals were removed and measurements were obtained on a PerkinElmer EnVision with excitation 340 nm, emission 520 nm (channel 1): 495 nm (channel 2) settings. Generation of raw data and workup of data to derive the IC50 (potency) and maximal inhibition at concentrations tested were performed using Merck's Assay Data Analyzer (ADA) software.

T1 sequence (Q5S007 whole entry G2019S): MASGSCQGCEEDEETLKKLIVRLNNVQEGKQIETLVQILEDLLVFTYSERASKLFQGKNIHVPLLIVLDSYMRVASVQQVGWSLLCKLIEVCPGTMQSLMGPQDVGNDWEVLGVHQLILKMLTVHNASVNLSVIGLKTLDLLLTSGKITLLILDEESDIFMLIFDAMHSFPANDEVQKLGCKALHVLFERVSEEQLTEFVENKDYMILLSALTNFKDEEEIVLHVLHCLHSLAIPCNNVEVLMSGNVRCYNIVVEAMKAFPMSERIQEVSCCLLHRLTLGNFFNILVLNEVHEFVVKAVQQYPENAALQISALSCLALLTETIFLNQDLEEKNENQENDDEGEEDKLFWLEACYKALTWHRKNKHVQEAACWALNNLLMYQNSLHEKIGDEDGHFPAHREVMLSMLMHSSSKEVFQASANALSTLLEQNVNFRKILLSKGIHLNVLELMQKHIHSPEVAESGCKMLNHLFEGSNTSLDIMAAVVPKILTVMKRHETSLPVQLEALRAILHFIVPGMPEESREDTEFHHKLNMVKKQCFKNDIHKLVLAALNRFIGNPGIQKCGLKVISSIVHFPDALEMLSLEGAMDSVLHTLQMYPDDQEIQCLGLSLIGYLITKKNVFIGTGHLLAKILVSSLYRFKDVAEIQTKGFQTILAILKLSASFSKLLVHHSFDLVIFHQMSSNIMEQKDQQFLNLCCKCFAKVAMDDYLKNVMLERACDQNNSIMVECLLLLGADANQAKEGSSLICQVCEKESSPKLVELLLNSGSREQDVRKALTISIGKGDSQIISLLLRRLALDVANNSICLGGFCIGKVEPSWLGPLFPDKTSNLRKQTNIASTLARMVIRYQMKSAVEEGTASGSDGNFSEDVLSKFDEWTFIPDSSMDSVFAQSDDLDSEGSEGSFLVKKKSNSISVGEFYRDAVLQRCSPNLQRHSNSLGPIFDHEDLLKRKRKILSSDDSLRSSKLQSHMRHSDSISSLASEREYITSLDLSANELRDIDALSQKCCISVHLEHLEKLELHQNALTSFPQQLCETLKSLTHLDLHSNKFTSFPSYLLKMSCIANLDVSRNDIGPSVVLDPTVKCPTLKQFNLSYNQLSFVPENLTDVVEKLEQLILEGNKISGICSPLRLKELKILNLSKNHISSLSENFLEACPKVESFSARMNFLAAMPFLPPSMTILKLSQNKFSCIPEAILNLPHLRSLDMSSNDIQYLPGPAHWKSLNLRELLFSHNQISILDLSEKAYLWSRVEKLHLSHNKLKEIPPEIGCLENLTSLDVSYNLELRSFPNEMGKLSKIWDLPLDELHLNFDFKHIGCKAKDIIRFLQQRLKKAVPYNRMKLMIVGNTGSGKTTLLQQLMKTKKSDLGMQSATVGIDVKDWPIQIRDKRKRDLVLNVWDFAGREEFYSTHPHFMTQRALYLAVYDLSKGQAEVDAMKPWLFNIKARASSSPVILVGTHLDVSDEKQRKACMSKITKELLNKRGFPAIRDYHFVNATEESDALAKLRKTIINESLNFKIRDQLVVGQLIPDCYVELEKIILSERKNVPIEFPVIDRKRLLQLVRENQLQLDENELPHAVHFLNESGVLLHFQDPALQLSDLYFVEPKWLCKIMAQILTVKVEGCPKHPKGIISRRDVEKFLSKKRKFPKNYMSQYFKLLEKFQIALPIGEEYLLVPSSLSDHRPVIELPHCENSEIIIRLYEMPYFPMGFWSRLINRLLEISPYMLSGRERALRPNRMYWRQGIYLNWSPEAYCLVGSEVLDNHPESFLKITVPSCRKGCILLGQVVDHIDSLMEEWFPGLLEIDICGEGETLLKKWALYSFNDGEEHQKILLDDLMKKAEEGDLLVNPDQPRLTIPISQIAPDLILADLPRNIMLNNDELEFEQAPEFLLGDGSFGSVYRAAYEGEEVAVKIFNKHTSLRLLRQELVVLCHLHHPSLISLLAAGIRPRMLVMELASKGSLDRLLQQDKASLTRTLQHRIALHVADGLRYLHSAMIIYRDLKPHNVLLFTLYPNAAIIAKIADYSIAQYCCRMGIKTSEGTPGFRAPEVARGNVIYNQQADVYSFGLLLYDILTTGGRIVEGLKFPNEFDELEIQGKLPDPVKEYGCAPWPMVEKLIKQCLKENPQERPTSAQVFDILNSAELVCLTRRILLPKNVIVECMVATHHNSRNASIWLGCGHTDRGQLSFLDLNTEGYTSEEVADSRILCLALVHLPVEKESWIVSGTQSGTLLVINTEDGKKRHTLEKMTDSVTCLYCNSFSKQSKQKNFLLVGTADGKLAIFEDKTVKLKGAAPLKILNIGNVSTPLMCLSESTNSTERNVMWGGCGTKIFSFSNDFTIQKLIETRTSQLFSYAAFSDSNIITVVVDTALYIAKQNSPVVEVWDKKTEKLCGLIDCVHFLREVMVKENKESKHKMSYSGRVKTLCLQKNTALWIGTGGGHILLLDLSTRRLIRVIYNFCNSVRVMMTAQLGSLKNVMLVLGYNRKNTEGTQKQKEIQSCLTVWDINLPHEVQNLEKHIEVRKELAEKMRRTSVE

Structure (SMILES) | pIC50
CC1(C)CC(=O)c2c(SC3CCCC3)sc(-c3ccn(C(=O)NC(C)(C)C)n3)c2C1 [Example 70, N-tert-Butyl-3-[3-(cyclopentylsulfanyl)-6,6-dimethyl-4-oxo-4,5,6,7-tetrahydro-2-benzothiophen-1-yl]-1H-pyrazole-1-carboxamide] | 5.89
CCC(C)NC(=O)n1ccc(-c2sc(SC3CCCC3)c3c2CC(C)(C)CC3=O)n1 (centres unmarked) [Example 71, N-(Butan-2-yl)-3-[3-(cyclopentylsulfanyl)-6,6-dimethyl-4-oxo-4,5,6,7-tetrahydro-2-benzothiophen-1-yl]-1H-pyrazole-1-carboxamide] | 5.77
CNC(=O)n1ccc(-c2sc(SC3CCCC3)c3c2CC(C)(C)CC3=O)n1 [Example 72, 3-[3-(Cyclopentylsulfanyl)-6,6-dimethyl-4-oxo-4,5,6,7-tetrahydro-2-benzothiophen-1-yl]-N-methyl-1H-pyrazole-1-carboxamide] | 5.77
CC1(C)CC(=O)c2c(NC3CCCC3)sc(-c3ccn(C(=O)Nc4ccc(Cl)cc4)n3)c2C1 [Example 73, N-(4-Chlorophenyl)-3-[3-(cyclopentylamino)-6,6-dimethyl-4-oxo-4,5,6,7-tetrahydro-2-benzothiophen-1-yl]-1H-pyrazole-1-carboxamide] | 6.55
CC1(C)CC(=O)c2c(NC3CCCC3)sc(-c3ccn(C(=O)Nc4ccc(C#N)cc4)n3)c2C1 [Example 74, N-(4-Cyanophenyl)-3-[3-(cyclopentylamino)-6,6-dimethyl-4-oxo-4,5,6,7-tetrahydro-2-benzothiophen-1-yl]-1H-pyrazole-1-carboxamide] | 6.72
CC1(C)CC(=O)c2c(NC3CCCC3)sc(-c3ccn(C(=O)Nc4ccncc4)n3)c2C1 [Example 75, 3-[3-(Cyclopentylamino)-6,6-dimethyl-4-oxo-4,5,6,7-tetrahydro-2-benzothiophen-1-yl]-N-(pyridin-4-yl)-1H-pyrazole-1-carboxamide] | 6.14
CCCC(=O)n1ccc(-c2sc(SC3CCCC3)c3c2CC(C)(C)CC3=O)n1 [Example 76, 1-(1-Butanoyl-1H-pyrazol-3-yl)-3-(cyclopentylsulfanyl)-6,6-dimethyl-6,7-dihydro-2-benzothiophen-4(5H)-one] | 6.01
CC1(C)CC(=O)c2c(SC3CCCC3)sc(-c3ccn(C(=O)c4ccc(C#N)cc4)n3)c2C1 [Example 77, 4-({3-[3-(Cyclopentylsulfanyl)-6,6-dimethyl-4-oxo-4,5,6,7-tetrahydro-2-benzothiophen-1-yl]-1H-pyrazol-1-yl}carbonyl)benzonitrile] | 6.59
CC(C)C(=O)n1ccc(-c2sc(SC3CCCC3)c3c2CC(C)(C)CC3=O)n1 [Example 78, 3-(Cyclopentylsulfanyl)-6,6-dimethyl-1-[1-(2-methylpropanoyl)-1H-pyrazol-3-yl]-6,7-dihydro-2-benzothiophen-4(5H)-one] | 5.82
CC1(C)CC(=O)c2c(SC3CCCC3)sc(-c3ccn(C(=O)Cc4ccc(Cl)cc4)n3)c2C1 [Example 79, 1-{1-[(4-Chlorophenyl)acetyl]-1H-pyrazol-3-yl}-3-(cyclopentylsulfanyl)-6,6-dimethyl-6,7-dihydro-2-benzothiophen-4(5H)-one] | 6.22
CC1(C)CC(=O)c2c(SC3CCCC3)sc(-c3ccn(C(=O)c4ccc(Cl)nc4)n3)c2C1 [Example 80, 1-{1-[(6-Chloropyridin-3-yl)carbonyl]-1H-pyrazol-3-yl}-3-(cyclopentylsulfanyl)-6,6-dimethyl-6,7-dihydro-2-benzothiophen-4(5H)-one] | 6.24
CC1(C)CC(=O)c2c(SC3CCCC3)sc(-c3ccn(C(=O)c4ccc(F)cc4)n3)c2C1 [Example 81, 3-(Cyclopentylsulfanyl)-1-{1-[(4-fluorophenyl)carbonyl]-1H-pyrazol-3-yl}-6,6-dimethyl-6,7-dihydro-2-benzothiophen-4(5H)-one] | 6.01
COc1ccc(C(=O)n2ccc(-c3sc(SC4CCCC4)c4c3CC(C)(C)CC4=O)n2)cc1 [Example 82, 3-(Cyclopentylsulfanyl)-1-{1-[(4-methoxyphenyl)carbonyl]-1H-pyrazol-3-yl}-6,6-dimethyl-6,7-dihydro-2-benzothiophen-4(5H)-one] | 5.47
CC1(C)CC(=O)c2c(SC3CCCC3)sc(-c3ccn(C(=O)C4CCCCC4)n3)c2C1 [Example 83, 1-[1-(Cyclohexylcarbonyl)-1H-pyrazol-3-yl]-3-(cyclopentylsulfanyl)-6,6-dimethyl-6,7-dihydro-2-benzothiophen-4(5H)-one] | 5.40
CC1(C)CC(=O)c2c(SC3CCCC3)sc(-c3ccn(C(=O)c4ccc(F)c(F)c4)n3)c2C1 [Example 84, 3-(Cyclopentylsulfanyl)-1-{1-[(3,4-difluorophenyl)carbonyl]-1H-pyrazol-3-yl}-6,6-dimethyl-6,7-dihydro-2-benzothiophen-4(5H)-one] | 6.40
CSc1sc(-c2ccn(C(=O)OC(C)(C)C)n2)c2c1C(=O)CCC2 [Example 85, tert-Butyl 3-[3-(methylsulfanyl)-4-oxo-4,5,6,7-tetrahydro-2-benzothiophen-1-yl]-1H-pyrazole-1-carboxylate] | 5.96
O=C1CCCc2c(-c3ccn(C(=O)Nc4ccc(Cl)cc4)n3)sc(SC3CCCC3)c21 [Example 86, N-(4-chlorophenyl)-3-[3-(cyclopentylsulfanyl)-4-oxo-4,5,6,7-tetrahydro-2-benzothiophen-1-yl]-1H-pyrazole-1-carboxamide] | 7.18
N#Cc1ccc(NC(=O)n2ccc(-c3sc(NC4CCCC4)c4c3CCCC4=O)n2)cc1 [Example 87, N-(4-cyanophenyl)-3-[3-(cyclopentylamino)-4-oxo-4,5,6,7-tetrahydro-2-benzothiophen-1-yl]-1H-pyrazole-1-carboxamide] | 6.48
CSc1sc(-c2cc(C)[nH]n2)c2c1C(=O)CC(C)(C)C2 [Example 88, 6,6-Dimethyl-1-(5-methyl-1H-pyrazol-3-yl)-3-(methylsulfanyl)-6,7-dihydro-2-benzothiophen-4(5H)-one] | 5.85
CSc1sc(-c2cc(C3CC3)[nH]n2)c2c1C(=O)CC(C)(C)C2 [Example 89, 1-(5-Cyclopropyl-1H-pyrazol-3-yl)-6,6-dimethyl-3-(methylsulfanyl)-6,7-dihydro-2-benzothiophen-4(5H)-one] | 6.33
CCc1cc(-c2sc(SC)c3c2CC(C)(C)CC3=O)n[nH]1 [Example 90, 1-(5-Ethyl-1H-pyrazol-3-yl)-6,6-dimethyl-3-(methylsulfanyl)-6,7-dihydro-2-benzothiophen-4(5H)-one] | 6.35
CSc1sc(-c2cc[nH]n2)c2c1C(=O)C(C)CC2 (centres unmarked) [Example 91, 5-Methyl-3-(methylsulfanyl)-1-(1H-pyrazol-3-yl)-6,7-dihydro-2-benzothiophen-4(5H)-one] | 6.82
CCCC1CCc2c(-c3cc[nH]n3)sc(SC)c2C1=O (centres unmarked) [Example 92, 3-(Methylsulfanyl)-5-propyl-1-(1H-pyrazol-3-yl)-6,7-dihydro-2-benzothiophen-4(5H)-one] | 6.51

Source: patent US20130338106A1, “COMPOUNDS INHIBITING LEUCINE-RICH REPEAT KINASE ENZYME ACTIVITY” (priority 2011, published 2013)
